# According to US11426397B2, “Piperidinyl- and piperazinyl-substituted heteroaromatic carboxamides as modulators of GPR6” (TAKEDA PHARMACEUTICAL COMPANY LIMITED, priority 2017, dated 2022):
# Molecular target: T1, GPR6 receptor expressed in CHO-K1 cells (Homo sapiens, UniProt P46095)
# T1 construct: expressed in transfected cells
# Test: In vitro inhibition of cAMP (EC50), cell-based HTRF cAMP assay
# Details: inhibition of constitutive cAMP activity of GPR6 in CHO-K1 cells
# Description: I. In Vitro Inhibition of cAMP (EC50)
# This cell based assay measures the ability of test compounds to inhibit the constitutive cAMP activity of GPR6 receptor expressed in CHO-K1 cells. CHO cells are stably expressed with GPR6 receptor, whose expression is controlled by a tetracycline inducible element. The cells were cultured in medium containing F12K, 10% FBS, 1% Penn/Strep, 200 μg/mL Hygromycin. GPR6 receptor expression is induced for 20 hours with 2 μg/mL doxycycline (Sigma D9891) in growth media. After addition of doxycycline, the cells are plated at a density of 450-750 cells per well in 96-well half-volume black tissue culture plates (Costar) and placed in an incubator (37° C., 5% CO2) for 20 hours prior to cAMP assays.
# Culture media is removed from the cells and they are washed with 50 μL/well of Ringer's Buffer (MgCl2 0.047 mg/mL, NaH2PO4 0.18 mg/mL, Na2HPO4 0.1 mg/mL, KCl 0.34 mg/mL, NaHCO3 1.26 mg/mL, D-glucose 1.8 mg/mL, NaCl 7 mg/mL; pH=7.4). The test compounds are suspended in DMSO, diluted in Ringer's Buffer containing 0.5% fatty acid free BSA plus 300 μM IBMX, and incubated on the cells for 45 minutes at 37° C. and 5% CO2. After incubation, the cells are conditioned for 10 minutes at room temp with Eu-cAMP tracer solution from a Perkin Elmer Lance HTRF Ultra cAMP assay kit (TRF0263). Then ULight™-anti-cAMP solution from the Lance HTRF kit is added and incubated on a shaker at room temp for 1 hour prior to HTRF detection in a Perkin Elmer Envision plate reader. EC50 curves are generated with a four-parameter logistic equation using GraphPad Prism 5.03.
# Table 1 lists biological assay data (in vitro inhibition of cAMP) for some of the compounds shown in the examples, where larger pEC50 values represent higher activity or potency. All of the compounds shown in Table 1 were tested in accordance with a cell-based assay which measures the ability of test compounds to inhibit the constitutive cAMP activity of GPR6 receptor expressed in CHO-K1 cells (reported as pEC50). The assay is described in the specification under the heading “In vitro inhibition of cAMP (EC50).”
# T1 sequence (P46095 whole entry): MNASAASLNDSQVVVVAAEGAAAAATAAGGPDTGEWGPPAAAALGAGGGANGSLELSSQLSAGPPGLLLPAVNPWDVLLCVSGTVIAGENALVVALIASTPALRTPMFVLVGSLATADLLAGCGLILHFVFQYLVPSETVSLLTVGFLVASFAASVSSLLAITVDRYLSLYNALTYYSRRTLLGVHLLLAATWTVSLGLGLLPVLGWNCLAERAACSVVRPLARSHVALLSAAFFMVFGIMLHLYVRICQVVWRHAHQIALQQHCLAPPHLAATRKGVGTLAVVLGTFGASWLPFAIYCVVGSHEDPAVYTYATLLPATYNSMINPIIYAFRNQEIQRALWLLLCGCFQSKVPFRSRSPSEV
row,SMILES,"pEC50, in vitro inhibition of cAMP"
1,"CNC(=O)c1cc(N2CCC(Oc3ccc(F)cc3F)CC2)c(NC(=O)c2cccnc2OC)cn1 [Example 19, 4-(4-(2,4-difluorophenoxy)piperidin-1-yl)-5-(2-methoxynicotinamido)-N-methylpicolinamide]",6.7
2,"COc1cc(N2CCC(Oc3ccc(F)cc3F)CC2)c(NC(=O)c2cnccc2OC)cn1 [Example 21, N-(4-(4-(2,4-difluorophenoxy)piperidin-1-yl)-6-methoxypyridin-3-yl)-4-methoxynicotinamide]",7.4
3,"[2H]C([2H])([2H])N(C(=O)c1cc(N2CCC(Oc3ccc(F)cc3F)CC2)c(NC(=O)c2cccnc2OC)cn1)C([2H])([2H])[2H] [Example 22, 4-(4-(2,4-difluorophenoxy)piperidin-1-yl)-5-(2-methoxynicotinamido)-N,N-bis(methyl-d3)picolinamide]",7.1
4,"COc1ncc(NC(=O)c2ccc(C)nc2OC)c(N2CCC(Oc3ccc(F)cc3F)CC2)n1 [Example 23, N-(4-(4-(2,4-difluorophenoxy)piperidin-1-yl)-2-methoxypyrimidin-5-yl)-2-methoxy-6-methylnicotinamide]",6.3
5,"Cc1cc(=O)c(C(=O)Nc2cc(C#N)ccc2N2CCC(Oc3ccc(F)cc3F)CC2)cn1C [Example 24, N-(5-cyano-2-(4-(2,4-difluorophenoxy)piperidin-1-yl)phenyl)-1,6-dimethyl-4-oxo-1,4-dihydropyridine-3-carboxamide]",6.2
6,"COc1cnccc1C(=O)Nc1cc(C#N)ccc1N1CCC(Oc2ccc(F)cc2F)CC1 [Example 25, N-(5-cyano-2-(4-(2,4-difluorophenoxy)piperidin-1-yl)phenyl)-3-methoxyisonicotinamide]",7.0
7,"COc1cccnc1C(=O)Nc1cc(C#N)ccc1N1CCC(Oc2ccc(F)cc2F)CC1 [Example 26, N-(5-cyano-2-(4-(2,4-difluorophenoxy)piperidin-1-yl)phenyl)-3-methoxypicolinamide]",6.4
8,"N#Cc1ccc(N2CCC(Oc3ccc(F)cc3F)CC2)c(NC(=O)c2cccc3c2OCC3)c1 [Example 27, N-(5-cyano-2-(4-(2,4-difluorophenoxy)piperidin-1-yl)phenyl)-2,3-dihydrobenzofuran-7-carboxamide]",7.4
9,"CCOc1ncccc1C(=O)Nc1cc(C#N)ccc1N1CCC(Oc2ccc(F)cc2F)CC1 [Example 28, N-(5-cyano-2-(4-(2,4-difluorophenoxy)piperidin-1-yl)phenyl)-2-ethoxynicotinamide]",6.6
10,"COc1ccc(OC2CCN(c3ccc(C#N)cc3NC(=O)c3cccn(C)c3=O)CC2)c(F)c1 [Example 29, N-(5-cyano-2-(4-(2-fluoro-4-methoxyphenoxy)piperidin-1-yl)phenyl)-1-methyl-2-oxo-1,2-dihydropyridine-3-carboxamide]",7.3
11,"Cn1cccc(C(=O)Nc2ccc(S(C)(=O)=O)cc2N2CCC(Oc3ccc(F)cc3F)CC2)c1=O [Example 30, N-(2-(4-(2,4-difluorophenoxy)piperidin-1-yl)-4-(methylsulfonyl)phenyl)-1-methyl-2-oxo-1,2-dihydropyridine-3-carboxamide]",7.2
12,COc1ncc(F)cc1C(=O)Nc1cnc(C(=O)N(C)C)cc1N1CCC(Oc2ccc(F)cc2F)CC1 [Example 32],7.0
13,"COCc1cnc(N2CCN(Cc3ccc(F)cc3F)CC2)c(NC(=O)c2cccnc2OC)c1 [Example 33, N-(2-(4-(2,4-difluorobenzyl)piperazin-1-yl)-5-(methoxymethyl)pyridin-3-yl)-2-methoxynicotinamide]",7.2
14,"COc1ncccc1C(=O)Nc1cc(CO)cnc1N1CCC(Oc2ccc(F)cc2F)CC1 [Example 34, N-(2-(4-(2,4-difluorophenoxy)piperidin-1-yl)-5-(hydroxymethyl)pyridin-3-yl)-2-methoxynicotinamide]",7.0
15,"COc1ccncc1C(=O)Nc1cc(C)cnc1N1CCC(Oc2ccc(F)cc2F)CC1 [Example 35, N-(2-(4-(2,4-difluorophenoxy)piperidin-1-yl)-5-methylpyridin-3-yl)-4-methoxynicotinamide]",7.4
16,"COc1nn(C)cc1C(=O)Nc1cc(C)cnc1N1CCC(Oc2ccc(F)cc2F)CC1 [Example 36, N-(2-(4-(2,4-difluorophenoxy)piperidin-1-yl)-5-methylpyridin-3-yl)-3-methoxy-1-methyl-1H-pyrazole-4-carboxamide]",7.0
17,"COc1ncncc1C(=O)Nc1cc(C#N)ccc1N1CCC(Oc2ccc(F)cc2F)CC1 [Example 37, N-(5-cyano-2-(4-(2,4-difluorophenoxy)piperidin-1-yl)phenyl)-4-methoxypyrimidine-5-carboxamide]",7.1
18,"CS(=O)(=O)c1ccc(N2CCC(Oc3ccc(F)cc3F)CC2)c(NC(=O)c2cnn3c2OCCCC3)c1 [Example 38, N-(2-(4-(2,4-difluorophenoxy)piperidin-1-yl)-5-(methylsulfonyl)phenyl)-5,6,7,8-tetrahydropyrazolo[5,1-b][1,3]oxazepine-3-carboxamide]",6.8
19,"COc1nc(C)ccc1C(=O)Nc1cc(C#N)c(F)cc1N1CCC(Oc2ccc(F)cc2F)CC1 [Example 39, N-(5-cyano-2-(4-(2,4-difluorophenoxy)piperidin-1-yl)-4-fluorphenyl)-2-methoxy-6-methylnicotinamide]",7.3
20,"COc1ncccc1C(=O)Nc1cnc(C)cc1N1CCC(Oc2ccc(C#N)cc2F)CC1 [Example 40, N-(4-(4-(4-cyano-2-fluorophenoxy)piperidin-1-yl)-6-methylpyridin-3-yl)-2-methoxynicotinamide]",6.2
21,"Cc1cc(C(=O)Nc2cc(C#N)ccc2N2CCC(Oc3ccc(F)cc3F)CC2)no1 [Example 41, N-(5-cyano-2-(4-(2,4-difluorophenoxy)piperidin-1-yl)phenyl)-5-methylisoxazole-3-carboxamide]",6.4
22,"Cn1ccc(C(=O)Nc2cc(C#N)ccc2N2CCC(Oc3ccc(F)cc3F)CC2)n1 [Example 42, N-(5-cyano-2-(4-(2,4-difluorophenoxy)piperidin-1-yl)phenyl)-1-methyl-1H-pyrazole-3-carboxamide]",6.9
23,"Cc1nc(C(=O)Nc2cc(C#N)ccc2N2CCC(Oc3ccc(F)cc3F)CC2)co1 [Example 43, N-(5-cyano-2-(4-(2,4-difluorophenoxy)piperidin-1-yl)phenyl)-2-methyloxazole-4-carboxamide]",6.1
24,"N#Cc1ccc(N2CCC(Oc3ccc(F)cc3F)CC2)c(NC(=O)c2cnccn2)c1 [Example 44, N-(5-cyano-2-(4-(2,4-difluorophenoxy)piperidin-1-yl)phenyl)pyrazine-2-carboxamide]",6.2
25,"Cn1cnc(C(=O)Nc2cc(C#N)ccc2N2CCC(Oc3ccc(F)cc3F)CC2)c1 [Example 45, N-(5-cyano-2-(4-(2,4-difluorophenoxy)piperidin-1-yl)phenyl)-1-methyl-1H-imidazole-4-carboxamide]",6.6
26,"COc1ccsc1C(=O)Nc1cc(C#N)ccc1N1CCC(Oc2ccc(F)cc2F)CC1 [Example 46, N-(5-cyano-2-(4-(2,4-difluorophenoxy)piperidin-1-yl)phenyl)-3-methoxythiophene-2-carboxamide]",7.2
27,"COc1cscc1C(=O)Nc1cc(C#N)ccc1N1CCC(Oc2ccc(F)cc2F)CC1 [Example 47, N-(5-cyano-2-(4-(2,4-difluorophenoxy)piperidin-1-yl)phenyl)-4-methoxythiophene-3-carboxamide]",7.2
28,"N#Cc1ccc(N2CCC(Oc3ccc(F)cc3F)CC2)c(NC(=O)c2cc3cccn3cn2)c1 [Example 48, N-(5-cyano-2-(4-(2,4-difluorophenoxy)piperidin-1-yl)phenyl)pyrrolo[1,2-c]pyrimidine-3-carboxamide]",6.8
29,"N#Cc1ccc(N2CCC(Oc3ccc(F)cc3F)CC2)c(NC(=O)c2ncc(F)cc2F)c1 [Example 49, N-(5-cyano-2-(4-(2,4-difluorophenoxy)piperidin-1-yl)phenyl)-3,5-difluoropicolinamide]",6.5
